Measured values taken from US4229436A, “Antibiotic G-6302” (Takeda Chemical Industries, Ltd., priority 1977, dated 1980).
Values after ≈ are worked out from the molar mass of the structure shown.

Legend:
gram-positive bacteria = assay: Antimicrobial spectrum, summary in words; assay type: cell-based; conditions: summary of Table 3
Text: (§1) The biological characteristics of G-6302 are as follows. The antimicrobial spectra of G-6302 and its sodium salt against various microorganisms are shown in Table 3 (agar plate dilution method.)

gram-negative bacteria = assay: Antimicrobial spectrum, summary in words; assay type: cell-based; conditions: summary of Table 3
Text: as §1

[1] = tested on: Candida albicans IFO 0583; assay: Antimicrobial spectrum, agar plate dilution method; assay type: cell-based; conditions: IFO0583, Nutrient agar containing 1% of glucose, read-out: Minimal inhibitory concentration
Text: as §1
(§2) *Medium = Nutrient agar containing 1% of glucose

[2] = tested on: Aspergillus niger IFO 4066; assay: Antimicrobial spectrum, agar plate dilution method; assay type: cell-based; conditions: IFO4066, Nutrient agar containing 1% of glucose, read-out: Minimal inhibitory concentration
Text: as §1, §2

[3] = tested on: Penicillium chrysogenum IFO 4626; assay: Antimicrobial spectrum, agar plate dilution method; assay type: cell-based; conditions: IFO4626, Nutrient agar containing 1% of glucose, read-out: Minimal inhibitory concentration
Text: as §1, §2

[4] = tested on: Saccharomyces cerevisiae IFO 0209; assay: Antimicrobial spectrum, agar plate dilution method; assay type: cell-based; conditions: IFO0209, Nutrient agar containing 1% of glucose, read-out: Minimal inhibitory concentration
Text: as §1, §2

[5] = Basicity, neutrality or acidity; assay type: physicochemical
Escherichia coli = assay: Protection of mice infected with Escherichia coli; assay type: in vivo
Klebsiella pneumoniae = assay: Protection of mice infected with Klebsiella pneumoniae; assay type: in vivo
Solubility in solvents = assay type: physicochemical
Shigella flexneri EW-10 = assay: Antimicrobial spectrum, agar plate dilution method; assay type: cell-based; conditions: EW10, Trypticasesoy-broth-agar, read-out: Minimal inhibitory concentration
Text: as §1
(§3) Medium = Trypticasesoy-broth-agar

Escherichia coli T-7 = assay: Antimicrobial spectrum, agar plate dilution method; assay type: cell-based; conditions: T7, Trypticasesoy-broth-agar, read-out: Minimal inhibitory concentration
Text: as §1, §3

[6] = tested on: Staphylococcus aureus FDA 209P; assay: Antimicrobial spectrum, agar plate dilution method; assay type: cell-based; conditions: FDA209P, Trypticasesoy-broth-agar, read-out: Minimal inhibitory concentration
Text: as §1, §3

[7] = tested on: Proteus mirabilis IFO 3849; assay: Antimicrobial spectrum, agar plate dilution method; assay type: cell-based; conditions: IFO3849, Trypticasesoy-broth-agar, read-out: Minimal inhibitory concentration
Text: as §1, §3

[8] = tested on: Bacillus subtilis PCI 219; assay: Antimicrobial spectrum, agar plate dilution method; assay type: cell-based; conditions: PCI219, Trypticasesoy-broth-agar, read-out: Minimal inhibitory concentration
Text: as §1, §3

[9] = tested on: Proteus vulgaris IFO 3988; assay: Antimicrobial spectrum, agar plate dilution method; assay type: cell-based; conditions: IFO3988, Trypticasesoy-broth-agar, read-out: Minimal inhibitory concentration
Text: as §1, §3

[10] = tested on: Proteus morganii IFO 3168; assay: Antimicrobial spectrum, agar plate dilution method; assay type: cell-based; conditions: Morganella morganii, IFO3168, Trypticasesoy-broth-agar, read-out: Minimal inhibitory concentration
Text: as §1, §3

Klebsiella pneumoniae DT = assay: Antimicrobial spectrum, agar plate dilution method; assay type: cell-based; conditions: Trypticasesoy-broth-agar, read-out: Minimal inhibitory concentration
Text: as §1, §3

[11] = tested on: Corynebacterium diphtheriae Toronto; assay: Antimicrobial spectrum, agar plate dilution method; assay type: cell-based; conditions: Trypticasesoy-broth-agar, read-out: Minimal inhibitory concentration
Text: as §1, §3

Escherichia coli NIHJ = assay: Antimicrobial spectrum, agar plate dilution method; assay type: cell-based; conditions: Trypticasesoy-broth-agar, read-out: Minimal inhibitory concentration
Text: as §1, §3

[12] = tested on: Streptococcus pyogenes E-14; assay: Antimicrobial spectrum, agar plate dilution method; assay type: cell-based; conditions: E14, Trypticasesoy-broth-agar, read-out: Minimal inhibitory concentration
Text: as §1, §3

[13] = tested on: Serratia marcescens IFO 12648; assay: Antimicrobial spectrum, agar plate dilution method; assay type: cell-based; conditions: IFO12648, Trypticasesoy-broth-agar, read-out: Minimal inhibitory concentration
Text: as §1, §3

[14] = tested on: Pseudomonas aeruginosa U-31; assay: Antimicrobial spectrum, agar plate dilution method; assay type: cell-based; conditions: U31, Trypticasesoy-broth-agar, read-out: Minimal inhibitory concentration
Text: as §1, §3

[15] = Stability in aqueous solution; assay type: physicochemical
[16] = mouse, in vivo
[17] = tested on: Salmonella typhosa Boxhill 58; assay: Antimicrobial spectrum, agar plate dilution method; assay type: cell-based; conditions: Salmonella enterica, read-out: Minimal inhibitory concentration
Text: as §1, §3

[18] = Acute toxicity in mice, intravenous
[19] = listed as sodium salt of G-6302

In the case of `COC1(NC(=O)C(C)NC(=O)CCC(N)C(=O)O)CN(S(=O)(=O)O)C1=O` (stereo not drawn) [Antibiotic G-6302], the “antimicrobial activity against gram-positive bacteria” value (gram-positive bacteria) is reported as “inhibitory”, the “antimicrobial activity against gram-positive bacteria” value (gram-positive bacteria; listed as Antibiotic G-6302) is reported as “also active against some gram-positive bacteria” and the “antimicrobial activity against gram-negative bacteria” value (gram-negative bacteria) is reported as “inhibitory”. The “antimicrobial activity against gram-negative bacteria” value (gram-negative bacteria; listed as Antibiotic G-6302) was “mainly active against gram-negative bacteria”, the MIC [1] was greater than 100 µg/mL and the MIC [2] was greater than 100 µg/mL. For the same compound, the MIC [3] was greater than 100 µg/mL, the MIC [4] was greater than 100 µg/mL and the “Basicity, neutrality or acidity” value [5] was “Acid”. For the same compound, the “protecting action on infected mice” value (Escherichia coli; oral dose of 100 mg/kg) was “protecting action”, the “protecting action on infected mice” value (Escherichia coli; subcutaneous dose of 10 mg/kg) was “protecting action” and the “protecting action on infected mice” value (Klebsiella pneumoniae; oral dose of 100 mg/kg) was “protecting action”. The “protecting action on infected mice” value (Klebsiella pneumoniae; subcutaneous dose of 10 mg/kg) was “protecting action”, the Solubility in acetone (Solubility in solvents) was “sparingly soluble” and the Solubility in benzene (Solubility in solvents; benzene) was “Insoluble”. The Solubility in chloroform (Solubility in solvents; chloroform) was “Insoluble”, the “Solubility in diethyl ether” value (Solubility in solvents; diethyl ether) was “Insoluble” and the Solubility in dimethylsulfoxide (Solubility in solvents; dimethylsulfoxide) was “soluble”. The Solubility in ethanol (Solubility in solvents; ethanol) was “sparingly soluble”, the “Solubility in ethyl acetate” value (Solubility in solvents; ethyl acetate) was “Insoluble” and the Solubility in hexane (Solubility in solvents; hexane) was “Insoluble”. For the same compound, the Solubility in methanol (Solubility in solvents) was “soluble”, the “Solubility in petroleum ether” value (Solubility in solvents; petroleum ether) was “Insoluble” and the Solubility in pyridine (Solubility in solvents; pyridine) was “sparingly soluble”. For the same compound, the Solubility in water (Solubility in solvents; water) was “readily soluble”, the MIC (Shigella flexneri EW-10) was 25 µg/mL (≈ 63.1 µM) and the MIC (Escherichia coli T-7) was 25 µg/mL (≈ 63.1 µM). For the same compound, the MIC [6] was greater than 100 µg/mL, the MIC [7] was 25 µg/mL (≈ 63.1 µM) and the MIC [8] was 100 µg/mL (≈ 252 µM). The MIC [9] was 100 µg/mL (≈ 252 µM), the MIC [10] was 100 µg/mL (≈ 252 µM) and the MIC (Klebsiella pneumoniae DT) was 12.5 µg/mL (≈ 31.5 µM). It also gave an MIC [11] of 12.5 µg/mL (≈ 31.5 µM), an MIC (Escherichia coli NIHJ) of 25 µg/mL (≈ 63.1 µM) and an MIC [12] greater than 100 µg/mL. The MIC [13] was 100 µg/mL (≈ 252 µM), the MIC [14] was greater than 100 µg/mL and the “Stability over pH 8.5” value ([15]; over pH 8.5) was “unstable”. For the same compound, the “Stability in aqueous solution” value ([15]; pH 3-pH 7, 60° C., 10 minutes) was “Stable”.
In the case of `COC1(NC(=O)C(C)NC(=O)CCC(N)C(=O)O)CN(S(=O)(=O)O)C1=O` (stereo not drawn) [G-6302 . Na], the deaths [16] is reported as “no deaths”, the Solubility in acetone (Solubility in solvents; [19]) is reported as “Insoluble” and the Solubility in methanol (Solubility in solvents; [19]) is reported as “sparingly soluble”. The MIC [17] was 12.5 µg/mL (≈ 31.5 µM) and the acute toxicity [18] was “low”.
In the case of `COC1(NC(=O)C(C)NC(=O)CCC(N)C(=O)O)CN(S(=O)(=O)O)C1=O` (stereo not drawn) [crystals of G-6302], the “basicity, neutrality or acidity (compared with product of Example 1)” value ([5]; crystals of Example 5) is reported as “the same as those of the product obtained in Example 1”, the “solubility in solvents (compared with product of Example 1)” value (Solubility in solvents; crystals of Example 5) is reported as “the same as those of the product obtained in Example 1” and the “stability (compared with product of Example 1)” value ([15]; crystals of Example 5) is reported as “the same as those of the product obtained in Example 1”.
